Measurements as given in US20240116985A1, “STAPLED PEPTIDES AND METHODS THEREOF” (priority 2020, published 2024).
Converted amounts (≈) assume the structure as drawn. Like-named read-outs stand apart in the source and are kept apart here.

Key:
[1] = target: T1, full-length beta-Catenin (Uniprot ID P35222) (Homo sapiens, UniProt P35222); experiment: Fluorescence polarization IC50 (beta-catenin / 5FAM-TCF4 10-53 competition); format: binding; details: read-out: beta-Catenin FP IC50
T1 construct: 10 nM full-length beta-Catenin (Uniprot ID P35222)
T1 sequence (P35222 1-781): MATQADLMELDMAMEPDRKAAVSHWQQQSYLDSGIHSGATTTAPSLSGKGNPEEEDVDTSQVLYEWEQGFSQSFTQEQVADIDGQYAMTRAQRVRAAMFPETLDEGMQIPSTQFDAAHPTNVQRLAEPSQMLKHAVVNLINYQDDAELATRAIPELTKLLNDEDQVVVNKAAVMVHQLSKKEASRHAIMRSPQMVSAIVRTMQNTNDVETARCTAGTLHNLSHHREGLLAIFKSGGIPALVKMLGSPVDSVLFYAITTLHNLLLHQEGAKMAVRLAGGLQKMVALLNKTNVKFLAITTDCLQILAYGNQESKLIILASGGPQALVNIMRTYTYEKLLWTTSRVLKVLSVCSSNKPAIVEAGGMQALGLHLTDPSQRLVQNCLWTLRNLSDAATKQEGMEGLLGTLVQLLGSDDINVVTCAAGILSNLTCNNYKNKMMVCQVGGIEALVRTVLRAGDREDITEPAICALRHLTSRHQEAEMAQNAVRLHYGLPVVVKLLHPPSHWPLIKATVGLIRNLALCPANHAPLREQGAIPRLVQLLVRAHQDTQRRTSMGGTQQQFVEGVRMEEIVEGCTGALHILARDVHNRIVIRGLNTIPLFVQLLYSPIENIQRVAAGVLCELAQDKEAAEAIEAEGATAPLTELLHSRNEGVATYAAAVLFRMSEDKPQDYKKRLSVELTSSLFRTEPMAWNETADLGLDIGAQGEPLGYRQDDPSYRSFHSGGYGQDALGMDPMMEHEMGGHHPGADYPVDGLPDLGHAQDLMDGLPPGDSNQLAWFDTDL

CHI Log D procedure = format: physicochemical; details: pH 7.4, CHI Log D
Solubility in PBS = format: physicochemical
How it was run: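 HPLC quantitation of peptide remaining in the PBS supernatant after ultracentrifugation, referenced to a 50 μM solution in DMSO.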

[2] = target: T2, beta-catenin/TCF4 engagement (Homo sapiens, UniProt P35222); experiment: Nano-BRET target engagement assay (B-cat-Halo & TCF4-Luc in HEK293 cells); format: cell-based; details: read-out: NanoBRET Abs IC50
T2 construct: expressed in transfected cells; host or cells: HEK293
T2 sequence (P35222 1-781): T1 sequence (P35222 1-781)

Row | Compound | IC50 [1] [nM] | chromatographic logD (CHI Log D procedure) | Solubility (Solubility in PBS) [µM] | IC50 [2] [nM] | Solubility (Solubility in PBS; Solubility (uM)) [µM] | IC50 ([2]; absolute IC50) [nM]
1 | CC(=O)N1CCC[C@]12CC=CCCCC1(CCCC=CCCCOC(=O)N3CC[C@@](C(=O)N[C@@H](Cc4ccccc4F)C(=O)N[C@@H](Cc4csc5ccccc45)C(=O)N[C@@H](CCC(N)=O)C(N)=O)(C3)NC(=O)[C@H]([C@@H](C)O)NC(=O)[C@H](Cc3ccccc3)NC(=O)[C@H](C)NC(=O)[C@H](C)NC(=O)[C@H](CC(N)=O)NC(=O)[C@H](CC(=O)O)NC1=O)NC(=O)[C@H](CC(C)(C)C)NC(=O)[C@H](CC(=O)O)NC2=O (stereo partly drawn) [I-1022, Ac-PL3-Asp-Npg-B5-Asp-Asn-Ala-Ala-Phe-Thr-PyrS2-2FF-BztA-Gln-NH2] | 33 | 2.29 |  | 13700 | 20 (≈ 38.3 µg/mL) | 
2 | CC(=O)N1CCC[C@]12CC=CCCCC1(CCCC=CCCCOC(=O)N3CC[C@@](C(=O)N[C@@H](Cc4ccccc4Cl)C(=O)N[C@@H](Cc4csc5ccccc45)C(=O)N[C@@H](C(N)=O)[C@H](C)O)(C3)NC(=O)[C@H](CC(N)=O)NC(=O)[C@H](Cc3ccccc3)NC(=O)[C@H](C)NC(=O)[C@H](C)NC(=O)[C@H](CCC(=O)O)NC(=O)[C@H](CC(=O)O)NC1=O)NC(=O)[C@H](CC(C)(C)C)NC(=O)[C@H](CC(=O)O)NC2=O (stereo partly drawn) [I-1031, Ac-PL3-Asp-Npg-B5-Asp-Glu-Ala-Ala-Phe-Asn-PyrS2-2C1F-BztA-dThr-NH2] | 11 | 2.42 |  |  | 47 (≈ 90.9 µg/mL) | 8800
3 | CC(=O)N1CCC[C@]12CC=CCCCC1(CCCC=CCCCOC(=O)N3CC[C@@](C(=O)N[C@@H](Cc4ccccc4Cl)C(=O)N[C@@H](Cc4csc5ccccc45)C(=O)N[C@@H](C(N)=O)[C@H](C)O)(C3)NC(=O)[C@H](CO)NC(=O)[C@H](Cc3ccccc3)NC(=O)[C@H](C)NC(=O)[C@H](C)NC(=O)[C@H](CC(=O)O)NC(=O)[C@H](CC(=O)O)NC1=O)NC(=O)[C@H](CC(C)(C)C)NC(=O)[C@H](CC(=O)O)NC2=O (stereo partly drawn) [I-1032, Ac-PL3-Asp-Npg-B5-Asp-Asp-Ala-Ala-Phe-Ser-PyrS2-2C1F-BztA-dThr-NH2] | 15 | 2.43 |  | 10400 | 44 (≈ 83.3 µg/mL) | 
4 | CC(=O)N1CCC[C@]12CC=CCCCC1(CCCC=CCCCOC(=O)N3CC[C@@](C(=O)N[C@@H](Cc4ccccc4Cl)C(=O)N[C@@H](Cc4csc5ccccc45)C(=O)N[C@@H](C(N)=O)[C@H](C)O)(C3)NC(=O)[C@H]([C@@H](C)O)NC(=O)[C@H](Cc3ccccc3)NC(=O)[C@H](C)NC(=O)[C@H](C)NC(=O)[C@H](CC(=O)O)NC(=O)[C@H](CC(=O)O)NC1=O)NC(=O)[C@H](CC(C)(C)C)NC(=O)[C@H](CC(=O)O)NC2=O (stereo partly drawn) [I-1033, Ac-PL3-Asp-Npg-B5-Asp-Asp-Ala-Ala-Phe-Thr-PyrS2-2ClF-BztA-dThr-NH2] | 10 | 2.5 |  | 8600 | 34 (≈ 64.8 µg/mL) | 
5 | CC(=O)N1CCC[C@]12CC=CCCCC1(CCCC=CCCCOC(=O)N3CC[C@@](C(=O)N[C@@H](Cc4ccccc4Cl)C(=O)N[C@@H](Cc4csc5ccccc45)C(=O)N[C@@H](CCC(N)=O)C(N)=O)(C3)NC(=O)[C@H](CC(N)=O)NC(=O)[C@H](Cc3ccccc3)NC(=O)[C@H](C)NC(=O)[C@H](C)NC(=O)[C@H](CC(=O)O)NC(=O)[C@H](CC(=O)O)NC1=O)NC(=O)[C@H](CC1CCCCC1)NC(=O)[C@H](CC(=O)O)NC2=O (stereo partly drawn) [I-1040, Ac-PL3-Asp-Cha-B5-Asp-Asp-Ala-Ala-Phe-Asn-PyrS2-2C1F-BztA-Gln-NH2] | 8 | 2.27 | 50 (≈ 98.6 µg/mL) |  |  | 9300
6 | CC(=O)N1CCC[C@]12CC=CCCCC1(CCCC=CCCCOC(=O)N3CC[C@@](C(=O)N[C@@H](Cc4ccccc4Cl)C(=O)N[C@@H](Cc4csc5ccccc45)C(=O)N[C@@H](CCC(N)=O)C(N)=O)(C3)NC(=O)[C@H]([C@@H](C)O)NC(=O)[C@H](Cc3ccccc3)NC(=O)[C@H](C)NC(=O)[C@H](C)NC(=O)[C@H](CC(=O)O)NC(=O)[C@H](CC(=O)O)NC1=O)NC(=O)[C@H](CC1CCCCC1)NC(=O)[C@H](CC(=O)O)NC2=O (stereo partly drawn) [I-1042, Ac-PL3-Asp-Cha-B5-Asp-Asp-Ala-Ala-Phe-Thr-PyrS2-2C1F-BztA-Gln-NH2] | 5 | 2.35 |  | 11400 | 46 (≈ 90.1 µg/mL) | 
7 | CC(=O)N1CCC[C@]12CC=CCCCC1(CCCC=CCCCOC(=O)N3CC[C@@](C(=O)N[C@@H](Cc4ccccc4Cl)C(=O)N[C@@H](Cc4csc5ccccc45)C(=O)N[C@@H](CCC(N)=O)C(N)=O)(C3)NC(=O)[C@H]([C@@H](C)O)NC(=O)[C@H](Cc3ccccc3)NC(=O)[C@H](C)NC(=O)[C@H](C)NC(=O)[C@H](CC(=O)O)NC(=O)[C@H](CC(=O)O)NC1=O)NC(=O)[C@H](Cc1ccccc1)NC(=O)[C@H](CC(=O)O)NC2=O (stereo partly drawn) [I-1043, Ac-PL3-Asp-Phe-B5-Asp-Asp-Ala-Ala-Phe-Thr-PyrS2-2C1F-BztA-Gln-NH2] | 12 | 2.15 |  | > 20000 | 43 (≈ 84 µg/mL) | 
8 | CC(=O)N1CCC[C@]12CC=CCCCC1(CCCC=CCCCOC(=O)N3CC[C@@](C(=O)N[C@@H](Cc4ccccc4Cl)C(=O)N[C@@H](Cc4csc5ccccc45)C(=O)N[C@@H](CCC(N)=O)C(N)=O)(C3)NC(=O)[C@H](CO)NC(=O)[C@H](Cc3ccccc3)NC(=O)[C@H](C)NC(=O)[C@H](C)NC(=O)[C@H](CC(=O)O)NC(=O)[C@H](CC(=O)O)NC1=O)NC(=O)[C@H](Cc1ccccc1)NC(=O)[C@H](CC(=O)O)NC2=O (stereo partly drawn) [I-1045, Ac-PL3-Asp-Phe-B5-Asp-Asp-Ala-Ala-Phe-Ser-PyrS2-2C1F-BztA-Gln-NH2] | 5 | 2.12 |  |  | 49 (≈ 95 µg/mL) | 23900

The remaining molecules from weak to strong by IC50 [1], led by results:

Row | IC50 [1] [nM] | chromatographic logD (CHI Log D procedure) | Solubility (Solubility in PBS) [µM] | IC50 [2] [nM] | Solubility (Solubility in PBS; Solubility (uM)) [µM] | IC50 ([2]; absolute IC50) [nM] | Compound
9 | 26 | 2.35 | 10 (≈ 19.2 µg/mL) | 25800 |  |  | CC(=O)N1CCC[C@]12CC=CCCCC1(CCCC=CCCCOC(=O)N3CC[C@@](C(=O)N[C@@H](Cc4ccccc4Cl)C(=O)N[C@@H](Cc4csc5ccccc45)C(=O)N[C@@H](CCC(N)=O)C(N)=O)(C3)NC(=O)[C@H](CO)NC(=O)[C@H](Cc3ccccc3)NC(=O)[C@H](C)NC(=O)[C@H](C)NC(=O)[C@H](CC(N)=O)NC(=O)[C@H](CC(=O)O)NC1=O)NC(=O)[C@H](CC(C)(C)C)NC(=O)[C@H](CC(=O)O)NC2=O (stereo partly drawn) [I-1018, Ac-PL3-Asp-Npg-B5-Asp-Asn-Ala-Ala-Phe-Ser-PyrS2-2C1F-BztA-Gln-NH2]
10 | 10 | 2.17 |  | 15000 | 46 (≈ 86.3 µg/mL) |  | CC(=O)N1CCC[C@]12CC=CCCCC1(CCCC=CCCCOC(=O)N3CC[C@@](C(=O)N[C@@H](Cc4ccccc4F)C(=O)N[C@@H](Cc4csc5ccccc45)C(=O)N[C@@H](CO)C(N)=O)(C3)NC(=O)[C@H]([C@@H](C)O)NC(=O)[C@H](Cc3ccccc3)NC(=O)[C@H](C)NC(=O)[C@H](C)NC(=O)[C@H](CC(=O)O)NC(=O)[C@H](CC(=O)O)NC1=O)NC(=O)[C@H](CC(C)(C)C)NC(=O)[C@H](CC(=O)O)NC2=O (stereo partly drawn) [I-1023, Ac-PL3-Asp-Npg-B5-Asp-Asp-Ala-Ala-Phe-Thr-PyrS2-2FF-BztA-Ser-NH2]
11 | 8 | 2.08 | 50 (≈ 98.3 µg/mL) |  |  | > 20000 | CC(=O)N1CCC[C@]12CC=CCCCC1(CCCC=CCCCOC(=O)N3CC[C@@](C(=O)N[C@@H](Cc4ccccc4Cl)C(=O)N[C@@H](Cc4csc5ccccc45)C(=O)N[C@@H](CCC(N)=O)C(N)=O)(C3)NC(=O)[C@H](CC(N)=O)NC(=O)[C@H](Cc3ccccc3)NC(=O)[C@H](C)NC(=O)[C@H](C)NC(=O)[C@H](CC(=O)O)NC(=O)[C@H](CC(=O)O)NC1=O)NC(=O)[C@H](Cc1ccccc1)NC(=O)[C@H](CC(=O)O)NC2=O (stereo partly drawn) [I-1041, Ac-PL3-Asp-Phe-B5-Asp-Asp-Ala-Ala-Phe-Asn-PyrS2-2C1F-BztA-Gln-NH2]
12 | 5 | 2.05 |  |  | 44 (≈ 84.4 µg/mL) | 11500 | CC(=O)N1CCC[C@]12CC=CCCCC1(CCCC=CCCCOC(=O)N3CC[C@@](C(=O)N[C@@H](Cc4ccccc4F)C(=O)N[C@@H](Cc4csc5ccccc45)C(=O)N[C@@H](CCC(N)=O)C(N)=O)(C3)NC(=O)[C@H]([C@@H](C)O)NC(=O)[C@H](Cc3ccccc3)NC(=O)[C@H](C)NC(=O)[C@H](C)NC(=O)[C@H](CC(=O)O)NC(=O)[C@H](CC(=O)O)NC1=O)NC(=O)[C@H](CC(C)(C)C)NC(=O)[C@H](CC(=O)O)NC2=O (stereo partly drawn) [I-1021, Ac-PL3-Asp-Npg-B5-Asp-Asp-Ala-Ala-Phe-Thr-PyrS2-2FF-BztA-Gln-NH2]
